PubChem BioAssay AID651691 (NMMLSC, 2012)
The source made the active and inactive calls. The rule behind the calls is not given here.

Assays:
BoNT/ALC = experiment: confirmation, biochemical, FRET, cleavage-site specific substrates (AID 651691); settings: FRET protease cleavage assay, BoNT/A LC or LF
LF = experiment: as above; settings: FRET protease cleavage assay, BoNT/A LC or LF

Structure (SMILES)	IC50 (BoNT/ALC)	IC50 (LF)
c1ccc(-c2cn3nc(-c4ccccc4)c(-c4ccccc4)nc3n2)cc1	500 nM	
COc1ccc(-c2cn3nc(-c4ccccc4)c(-c4ccccc4)nc3n2)cc1	500 nM	inactive
O=C(Nc1ccc2nc(-c3cccs3)c(-c3cccs3)nc2c1)N1CCOCC1	> 20000 nM (inactive)	
Cc1ccc(-c2cn3nc(-c4ccccc4)c(-c4ccccc4)nc3n2)cc1	300 nM	inactive
COc1ccccc1N1N=C(c2ccc([N+](=O)[O-])cc2)CC1c1ccccc1 (stereo not given)	200 nM	
O=C(Nc1ccc2nc(-c3cccs3)c(-c3cccs3)nc2c1)NC1CC1	> 20000 nM (inactive)	inactive
O=[N+]([O-])c1ccc(C2=NN(c3ccccc3)C(c3ccco3)C2)cc1 (stereo not given)	> 20000 nM (inactive)	
O=[N+]([O-])c1ccc(N2N=C(c3ccccc3)CC2c2ccccc2)cc1 (stereo not given)	1000 nM	
COc1ccc(C2CC(c3cccs3)=NN2c2nc(C)c(C(C)=O)s2)cc1OC (stereo not given)	1300 nM	
O=C(Nc1ccc2nc(-c3cccs3)c(-c3cccs3)nc2c1)N1CCCCC1	1200 nM	
Clc1ccc(-c2cn3nc(-c4ccccc4)c(-c4ccccc4)nc3n2)cc1	700 nM	inactive
